The experiment concerns the target T1, HIPK2 (Homo sapiens, UniProt Q9H2X6).
T1 construct: purchased Thermo Fisher Scientific (Life Technologies) SelectScreen
The experiment can be described thus: SelectScreen Z'LYTE. It counts as biochemical. Put shortly: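 Compound tested in SelectScreen activity assays, Z'LYTE for CSF1R, CDK1/cyclin B and MAP2K6 and Adapta for CAMK1. ATP for CAMK1 was listed as 10, and Km app was used for CSF1R. Results are expressed in percent.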

T1 sequence (Q9H2X6 whole entry): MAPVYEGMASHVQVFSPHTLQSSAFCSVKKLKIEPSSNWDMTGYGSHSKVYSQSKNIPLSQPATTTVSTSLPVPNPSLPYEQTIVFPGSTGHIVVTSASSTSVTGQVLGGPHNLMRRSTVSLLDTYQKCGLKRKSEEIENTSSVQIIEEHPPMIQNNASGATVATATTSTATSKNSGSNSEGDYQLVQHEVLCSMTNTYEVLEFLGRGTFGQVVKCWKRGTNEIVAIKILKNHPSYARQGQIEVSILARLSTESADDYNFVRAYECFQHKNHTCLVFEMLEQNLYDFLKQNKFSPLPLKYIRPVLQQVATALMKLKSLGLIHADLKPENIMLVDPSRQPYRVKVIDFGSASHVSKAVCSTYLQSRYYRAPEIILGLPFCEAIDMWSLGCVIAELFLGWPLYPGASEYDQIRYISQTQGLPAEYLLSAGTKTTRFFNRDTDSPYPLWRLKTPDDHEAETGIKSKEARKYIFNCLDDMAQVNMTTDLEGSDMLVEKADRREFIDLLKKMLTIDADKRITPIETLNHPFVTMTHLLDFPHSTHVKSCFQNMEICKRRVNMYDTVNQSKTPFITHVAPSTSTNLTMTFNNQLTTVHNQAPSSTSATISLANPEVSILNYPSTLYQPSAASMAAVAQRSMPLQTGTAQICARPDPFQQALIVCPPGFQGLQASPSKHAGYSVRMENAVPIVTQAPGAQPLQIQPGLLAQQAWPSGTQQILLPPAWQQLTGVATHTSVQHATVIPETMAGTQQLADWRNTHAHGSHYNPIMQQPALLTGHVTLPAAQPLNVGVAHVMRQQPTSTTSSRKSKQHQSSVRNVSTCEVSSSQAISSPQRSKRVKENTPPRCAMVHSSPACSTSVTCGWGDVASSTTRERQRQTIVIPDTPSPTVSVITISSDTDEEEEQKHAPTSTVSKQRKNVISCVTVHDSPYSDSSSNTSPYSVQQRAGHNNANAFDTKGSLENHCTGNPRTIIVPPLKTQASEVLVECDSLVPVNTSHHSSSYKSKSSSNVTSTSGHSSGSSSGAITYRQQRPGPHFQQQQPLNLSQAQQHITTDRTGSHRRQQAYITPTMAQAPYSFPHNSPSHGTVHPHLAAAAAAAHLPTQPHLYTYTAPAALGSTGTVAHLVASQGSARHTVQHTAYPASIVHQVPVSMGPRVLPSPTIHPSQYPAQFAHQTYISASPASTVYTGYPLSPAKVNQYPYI

Regarding `CN(C(=O)CN1CCOCC1)c1ccc2sc3c(-c4cccc5c(=O)cc(N6CC7CCC(C6)O7)oc45)cccc3c2c1` [NU5455], 1 µM produced 7.8% inhibition.
